Laboratory results taken from paper PMC12675387, “Receptor interaction profiles of 4-alkoxy-2,6-dimethoxyphenethylamines (Ψ derivatives) and related amphetamines” (Frontiers in Pharmacology, 2025).

Tests used:
human 5-HT2B receptor = target: T1, human 5-HT2B receptor (Homo sapiens, UniProt P41595); assay: Activation potency and efficacy at the 5-HT2B receptor (Fluo-4 calcium, HEK 293 cells); format: cell-based; conditions: for Emax: HEK293, relative to 5-HT (100%), read-out: h5-HT2B activation efficacy Emax ± SD
T1 construct: expressed in transfected cells; host or cells: HEK 293 cells
Description: The activation potency and efficacy at the 5-HT2B receptor were determined as previously described by [Luethi et al. (2018)]. In summary, HEK 293 cells stably transfected with the human 5-HT2B receptor were seeded in poly-D-lysine-coated 96 well plates at a density of 50,000 cells per well overnight at 37 °C in high glucose Dulbecco’s modified Eagle’s medium (DMEM; Invitrogen, Zug, Switzerland) supplemented with 10% fetal calf serum (non-dialyzed and heat-inactivated), 250 mg/L Geneticin, and 100 U/mL penicillin, and 100 μg/mL streptomycin (Gibco). The growth medium was removed by snap inversion and the cells were exposed to 100 μL calcium indication Fluo-4-solution (Molecular Probes, Eugene, OR, United States) for 45 min at 31 °C. Thereafter, the Fluo-4-solution was removed once again by snap inversion and was replaced with fresh 100 μL Fluo-4-solution. Next, the cells were washed with HBSS and 20 mM HEPES using the EMBLA cell washer and then exposed to the assay buffer (100 μL per well). Afterwards, 25 μL of test compounds diluted in assay buffer were added to the plate online. Dose–response curves were determined using nonlinear regression and EC50 values were calculated. The activation efficacy was calculated relative to the 5-HT activity (defined as 100%).

human TAAR1 = target: T2, human TAAR1 (Homo sapiens, UniProt Q96RJ0); assay: Activation potency at human TAAR1 (cAMP assay, HEK 293 cells); format: cell-based
T2 construct: expressed in transfected cells; host or cells: HEK 293 cells
T2 sequence (Q96RJ0 1-339): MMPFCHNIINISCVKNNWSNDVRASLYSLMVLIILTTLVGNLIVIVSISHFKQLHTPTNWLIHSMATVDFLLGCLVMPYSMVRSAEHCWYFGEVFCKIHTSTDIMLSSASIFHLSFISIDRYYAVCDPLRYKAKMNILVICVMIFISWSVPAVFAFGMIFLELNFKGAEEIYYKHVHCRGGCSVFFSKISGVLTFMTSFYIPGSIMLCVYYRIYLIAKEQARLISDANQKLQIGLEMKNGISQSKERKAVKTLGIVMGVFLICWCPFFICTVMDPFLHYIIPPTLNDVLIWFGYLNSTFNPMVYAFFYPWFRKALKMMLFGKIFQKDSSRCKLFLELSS
Description: The activation potency at the human TAAR1 was determined as previously described by [Luethi et al. (2018)]. In summary, recombinant HEK 293 cells stably transfected with the human TAAR1 were grown in culture flasks composed of 30 mL high glucose DMEM with 10% heat inactivated fetal calf serum, […] Geneticin, and […] hygromycin B at 37 °C and 5% CO2. The cells were grown to 80%–90% confluency before collection. The cells were washed with phosphate-buffer saline (PBS) and 5 mL of trypsin/EDTA solution were added for 5 min at 37 °C to detach the cells from the flask. Then, 45 mL of fresh medium were added to the flask and the total mixture was put into a falcon tube, which was centrifuged for 3 min at 900 rpm at room temperature. The supernatant was aspirated, and the remaining cell pellet was resuspended in fresh medium to a concentration of 5 × 10^5 cells per mL. Next, 100 μL of the cell mixture was transferred to a 96 well plate (BIOCOAT 6640, Becton Dickinson, Allschwil, Switzerland) and incubated for 20 h at 37 °C. For the cAMP assay, the medium was removed and replaced with 50 μL PBS lacking calcium or magnesium ions. The PBS was extracted via snap inversion and the plate was gently tapped on tissue to remove any remaining PBS solution. The plate was then incubated with Krebs-Ringer Bicarbonate buffer (90 μL/well; KRB, Sigma-Aldrich) containing 1 mM IBMX for 1 h at 37 °C and 5% CO2/95% air. Test compounds were investigated in duplicate at various concentrations ranging from 300 pM to 30 μM. A cAMP standard curve (concentration range of 0.13 nM–10 μM) was included on each 96 well plate. Additionally, a reference plate was used containing RO5256390, β-phenylethylamine and p-tyramine. Cells were incubated with either 30 μL of compound solution, β-phenylethylamine (which represented the maximal response) or a basal control in PBS (supplemented with 1 mM IBMX) for 40 min at 37 °C. Thereafter, the cells were incubated with 50 μL of 3× detection mix solution (consisting of Ru-cAMP Alexa700 anti-cAMP antibody and lysis buffer) for 40 min at 37 °C, while covered with black lids and under forceful shaking. The fluorescence (456 nm excitation wavelength; 630 and 700 nm emission wavelengths) was measured using a NanoScan reader (Innovate Optische Messtechnik, Berlin, Germany) and the FRET signal was calculated using the following equation: FRET (700 nm) – P × FRET (630 nm). P was equal to Ru (700 nm)/Ru (630 nm).

h5-HT1A receptor = target: T3, h5-HT1A receptor (Homo sapiens, UniProt P08908); assay: Radioligand binding, 5-HT1A receptor ([3H]8-OH-DPAT)
T3 sequence (P08908 1-422): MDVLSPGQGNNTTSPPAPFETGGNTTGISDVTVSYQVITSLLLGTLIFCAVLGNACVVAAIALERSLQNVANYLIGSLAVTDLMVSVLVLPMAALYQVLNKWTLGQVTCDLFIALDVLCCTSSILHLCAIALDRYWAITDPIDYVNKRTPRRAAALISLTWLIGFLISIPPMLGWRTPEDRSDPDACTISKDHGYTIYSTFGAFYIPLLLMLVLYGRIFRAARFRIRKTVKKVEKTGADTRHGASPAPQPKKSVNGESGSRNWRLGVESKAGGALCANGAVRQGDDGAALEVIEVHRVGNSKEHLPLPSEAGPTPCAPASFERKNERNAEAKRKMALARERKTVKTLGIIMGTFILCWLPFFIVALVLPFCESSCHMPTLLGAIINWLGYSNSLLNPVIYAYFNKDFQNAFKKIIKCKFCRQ

hα1A adrenergic receptor = target: T4, hα1A adrenergic receptor (Homo sapiens, UniProt P35348); assay: Radioligand binding, α1A adrenergic receptor ([3H]prazosin); conditions: hα1A Ki ± SD
T4 sequence (P35348 1-466): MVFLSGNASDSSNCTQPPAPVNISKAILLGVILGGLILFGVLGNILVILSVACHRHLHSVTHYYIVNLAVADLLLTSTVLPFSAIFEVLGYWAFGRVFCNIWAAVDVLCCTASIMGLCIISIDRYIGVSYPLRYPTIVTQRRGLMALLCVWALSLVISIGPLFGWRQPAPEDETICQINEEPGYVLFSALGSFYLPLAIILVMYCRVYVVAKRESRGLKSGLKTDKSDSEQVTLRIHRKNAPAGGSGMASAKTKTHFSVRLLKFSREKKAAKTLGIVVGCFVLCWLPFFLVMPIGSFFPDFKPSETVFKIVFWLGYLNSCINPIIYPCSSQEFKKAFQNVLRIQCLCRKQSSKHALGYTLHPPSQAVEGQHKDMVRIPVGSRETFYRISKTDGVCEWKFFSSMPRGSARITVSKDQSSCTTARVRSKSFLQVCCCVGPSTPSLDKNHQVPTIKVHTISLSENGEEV

T1 sequence (P41595 whole entry): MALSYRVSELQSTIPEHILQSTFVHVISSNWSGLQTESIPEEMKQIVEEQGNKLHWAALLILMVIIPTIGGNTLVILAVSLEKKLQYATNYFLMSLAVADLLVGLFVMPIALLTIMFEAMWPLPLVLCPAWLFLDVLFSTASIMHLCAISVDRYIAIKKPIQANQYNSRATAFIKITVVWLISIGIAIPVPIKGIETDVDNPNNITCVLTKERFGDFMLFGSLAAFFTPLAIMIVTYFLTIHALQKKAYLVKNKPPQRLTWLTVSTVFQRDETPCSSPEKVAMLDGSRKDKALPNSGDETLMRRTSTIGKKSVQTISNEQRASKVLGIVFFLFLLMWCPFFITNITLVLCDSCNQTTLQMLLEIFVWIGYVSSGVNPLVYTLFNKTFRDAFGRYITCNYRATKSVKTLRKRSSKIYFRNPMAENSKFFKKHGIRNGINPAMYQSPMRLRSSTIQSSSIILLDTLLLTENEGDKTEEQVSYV

COc1cc(OC)c(CC(C)N)c(OC)c1 (centres unmarked) [TMA-6, 2,4,6-trimethoxyamphetamine]
EC50 (human 5-HT2B receptor): 0.15 ± 0.02 µM | Emax (human 5-HT2B receptor): 59 ± 3% | EC50 (human TAAR1): > 30 µM | Ki (h5-HT1A receptor): > 5.6 µM | Ki (hα1A adrenergic receptor): > 8.8 µM

COc1cc(OC)c(CCN)c(OC)c1 [Ψ-2C-O-1, 2,4,6-trimethoxyphenethylamine]
EC50 (human 5-HT2B receptor): 0.33 ± 0.25 µM | Emax (human 5-HT2B receptor): 22 ± 8% | EC50 (human TAAR1): 2.3 µM | Ki (h5-HT1A receptor): 0.96 ± 0.09 µM | Ki (hα1A adrenergic receptor): > 8.8 µM

CCOc1cc(OC)c(CCN)c(OC)c1 [Ψ-2C-O-2, 2,6-dimethoxy-4-ethoxyphenethylamine]
EC50 (human 5-HT2B receptor): 2.1 µM | Emax (human 5-HT2B receptor): 27 ± 8% | EC50 (human TAAR1): 0.23 ± 0.17 µM | Ki (h5-HT1A receptor): 0.71 ± 0.03 µM | Ki (hα1A adrenergic receptor): 3.3 µM

C=C(C)COc1cc(OC)c(CCN)c(OC)c1 [Ψ-2C-O-3, 2,6-dimethoxy-4-methallyloxyphenethylamine]
EC50 (human 5-HT2B receptor): 0.31 ± 0.24 µM | Emax (human 5-HT2B receptor): 17 ± 4% | EC50 (human TAAR1): 0.1 ± 0.06 µM | Ki (h5-HT1A receptor): 1.01 µM | Ki (hα1A adrenergic receptor): 0.99 ± 0.02 µM

C=CCOc1cc(OC)c(CCN)c(OC)c1 [Ψ-2C-O-16, 4-allyloxy-2,6-dimethoxyphenethylamine]
EC50 (human 5-HT2B receptor): 0.091 ± 0.031 µM | Emax (human 5-HT2B receptor): 27 ± 8% | EC50 (human TAAR1): 0.034 ± 0.015 µM | Ki (h5-HT1A receptor): 0.91 ± 0.06 µM | Ki (hα1A adrenergic receptor): 0.67 ± 0.06 µM

COc1cc(OCCF)cc(OC)c1CCN [Ψ-2C-O-21, 2,6-dimethoxy-4-(2-fluoroethoxy)phenethylamine]
EC50 (human 5-HT2B receptor): > 10 µM | EC50 (human TAAR1): 0.08 ± 0.043 µM | Ki (h5-HT1A receptor): 1.6 µM | Ki (hα1A adrenergic receptor): 4.6 µM

COc1cc(OCC(F)F)cc(OC)c1CCN [Ψ-2C-O-21.5, 4-(2,2-difluoroethoxy)-2,6-dimethoxyphenethylamine]
EC50 (human 5-HT2B receptor): > 10 µM | EC50 (human TAAR1): 0.041 ± 0.009 µM | Ki (h5-HT1A receptor): 1.3 µM | Ki (hα1A adrenergic receptor): 2 µM

COc1cc(OCC(F)(F)F)cc(OC)c1CCN [Ψ-2C-O-22, 2,6-dimethoxy-4-(2,2,2-trifluoroethoxy)phenethylamine]
EC50 (human 5-HT2B receptor): > 10 µM | EC50 (human TAAR1): 0.047 ± 0.022 µM | Ki (h5-HT1A receptor): 2.4 µM | Ki (hα1A adrenergic receptor): 2 µM

COc1cc(OCc2ccccc2)cc(OC)c1CCN [Ψ-2C-O-27, 4-benzyloxy-2,6-dimethoxyphenethylamine]
EC50 (human 5-HT2B receptor): > 10 µM | EC50 (human TAAR1): 3 µM | Ki (h5-HT1A receptor): 2.1 µM | Ki (hα1A adrenergic receptor): 3.6 µM

COc1cc(OC(F)F)cc(OC)c1CCN [Ψ-2C-O-35, 4-(2,2-difluoromethoxy)-2,6-dimethoxyphenethylamine]
EC50 (human 5-HT2B receptor): 0.3 ± 0.23 µM | Emax (human 5-HT2B receptor): 20 ± 13% | EC50 (human TAAR1): > 30 µM | Ki (h5-HT1A receptor): 4.44 µM | Ki (hα1A adrenergic receptor): 2.1 µM

COc1cc(OC(F)F)cc(OC)c1CC(C)N (centres unmarked) [Ψ-DODFMO, 4-(2,2-difluoromethoxy)-2,6-dimethoxyamphetamine]
EC50 (human 5-HT2B receptor): 0.16 ± 0.05 µM | Emax (human 5-HT2B receptor): 58 ± 23% | EC50 (human TAAR1): > 30 µM | Ki (h5-HT1A receptor): 5.1 µM | Ki (hα1A adrenergic receptor): 5.9 µM

C=CCOc1cc(OC)c(CC(C)N)c(OC)c1 (centres unmarked) [Ψ-MALM, 4-allyloxy-2,6-dimethoxyamphetamine]
EC50 (human 5-HT2B receptor): 0.055 ± 0.024 µM | Emax (human 5-HT2B receptor): 69 ± 19% | EC50 (human TAAR1): > 30 µM | Ki (h5-HT1A receptor): > 5.6 µM | Ki (hα1A adrenergic receptor): 1.4 µM

COc1cc(OCc2ccccc2)cc(OC)c1CC(C)N (centres unmarked) [Ψ-MBnM, 4-benzyloxy-2,6-dimethoxyamphetamine]
EC50 (human 5-HT2B receptor): > 10 µM | EC50 (human TAAR1): > 30 µM | Ki (h5-HT1A receptor): > 5.6 µM | Ki (hα1A adrenergic receptor): 5.8 µM

COc1cc(OCC(F)F)cc(OC)c1CC(C)N (centres unmarked) [Ψ-MDFEM, 4-(2,2-difluoroethoxy)-2,6-dimethoxyamphetamine]
EC50 (human 5-HT2B receptor): > 10 µM | EC50 (human TAAR1): 0.85 ± 0.5 µM | Ki (h5-HT1A receptor): > 5.6 µM | Ki (hα1A adrenergic receptor): 3.9 µM

CCOc1cc(OC)c(CC(C)N)c(OC)c1 (centres unmarked) [Ψ-MEM, 2,6-dimethoxy-4-ethoxyamphetamine]
EC50 (human 5-HT2B receptor): 0.26 ± 0.16 µM | Emax (human 5-HT2B receptor): 28 ± 11% | fold difference in 5-HT2B activation potency, amphetamine vs phenethylamine counterpart (human 5-HT2B receptor; Ψ-MEM vs Ψ-2C-O-2): 8 fold | EC50 (human TAAR1): 2.2 µM | Ki (h5-HT1A receptor): > 5.6 µM | Ki (hα1A adrenergic receptor): 6.01 µM

COc1cc(OCCF)cc(OC)c1CC(C)N (centres unmarked) [Ψ-MFEM, 2,6-dimethoxy-4-(2-fluoroethoxy)amphetamine]
EC50 (human 5-HT2B receptor): > 10 µM | EC50 (human TAAR1): 1.9 µM | Ki (h5-HT1A receptor): > 5.6 µM | Ki (hα1A adrenergic receptor): 6.7 µM

C=C(C)COc1cc(OC)c(CC(C)N)c(OC)c1 (centres unmarked) [Ψ-MMALM, 2,6-dimethoxy-4-methallyloxyamphetamine]
EC50 (human 5-HT2B receptor): 0.093 ± 0.026 µM | Emax (human 5-HT2B receptor): 33 ± 11% | EC50 (human TAAR1): 2.5 µM | Ki (h5-HT1A receptor): > 5.6 µM | Ki (hα1A adrenergic receptor): 2.2 µM

COc1cc(OCC(F)(F)F)cc(OC)c1CC(C)N (centres unmarked) [Ψ-MTFEM, 2,6-dimethoxy-4-(2,2,2-trifluoroethoxy)amphetamine]
EC50 (human 5-HT2B receptor): > 10 µM | EC50 (human TAAR1): 1.1 µM | Ki (h5-HT1A receptor): > 5.6 µM | Ki (hα1A adrenergic receptor): 6.1 µM
